Measurements: patent US7829563B2, “Aminoamides as orexin antagonists” (Hoffmann-La Roche Inc., priority 2007, dated 2010)

What follows are molecules tested against T1, human orexin-2 (hOX2) receptors (Homo sapiens, UniProt O43614) (assay: Intracellular Ca2+ mobilization assay (FLIPR), antagonism of orexin-A). Settings: CHO(dHFr−) cells stably expressing hOX2; orexin-A at EC80 as agonist; Kb=IC50/(1+[A]/EC50); read-out: Kb (μM) OX2R (human).
T1 construct: expressed in transfected cells
T1 sequence (O43614 1-444): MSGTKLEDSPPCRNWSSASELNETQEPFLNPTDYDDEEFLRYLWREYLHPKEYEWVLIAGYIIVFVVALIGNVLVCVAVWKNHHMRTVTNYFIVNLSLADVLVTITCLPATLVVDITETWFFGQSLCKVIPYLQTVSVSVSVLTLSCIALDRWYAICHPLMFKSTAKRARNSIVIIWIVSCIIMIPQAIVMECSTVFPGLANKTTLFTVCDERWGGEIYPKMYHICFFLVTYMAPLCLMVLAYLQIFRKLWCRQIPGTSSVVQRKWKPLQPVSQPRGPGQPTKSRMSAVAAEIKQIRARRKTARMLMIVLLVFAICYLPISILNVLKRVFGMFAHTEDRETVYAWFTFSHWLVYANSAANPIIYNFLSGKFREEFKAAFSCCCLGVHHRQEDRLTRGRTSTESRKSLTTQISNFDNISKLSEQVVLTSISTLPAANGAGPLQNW
Format: cell-based
Experimental: R^7 and R^8 in scheme 5 are hydrogen, and the other substituents are as described above The compounds were investigated in accordance with the test given hereinafter. Intracellular Ca^2+ Mobilization Assay
The Chinese Hamster Ovary (dHFr−) mutant cell line stably expressing human orexin-1 (hOX1) or human orexin-2 (hOX2) receptors were maintained in Dulbecco's Modified Eagle Medium (1×) with GlutaMax™ 1, 4500 mg/L D-Glucose and Sodium Pyruvate (Catalog No. 31966-021, Invitrogen, Carlsbad, Calif.), 5% dialyzed fetal calf serum (Catalog No. 26400-044), 100 μg/ml penicillin and 100 μg/ml streptomycin. The cells were seeded at 5×10^4 cells/well in the poly-D-lysine treated, 96-well, black/clear-bottomed plates (Catalog No. BD356640, BD Biosciences, Palo Alto, Calif.). 24 h later, the cells were loaded for 1 h at 37° C. with 4 μM Flou-4 acetoxymethyl ester (Catalog No. F-14202, Molecular Probes, Eugene, Oreg.) in FLIPR buffer (1×HBSS, 20 mM HEPES, 2.5 mM Probenecid). Hanks' Balanced Salt Solution (HBSS) (10×) (catalog No. 14065-049) and HEPES (1M) (catalog No. 15630-056) were purchased from Invitrogen, Carlsbad, Calif. Probenecid (250 mM) (catalog No. P8761) was from Sigma, Buchs, Switzerland. The cells were washed five times with FLIPR buffer to remove excess dye and intracellular calcium mobilization, [Ca^2+]i were measured using a Fluorometric Imaging Plate Reader (FLIPR-96, Molecular Devices, Menlo Park, Calif.) as described previously (Malherbe et al., Mol. Pharmacol., 64, 823-832, 2003). Orexin A (catalog No. 1455, Toris Cookson Ltd, Bristol, UK) was used as agonist. Orexin A ([…] stock solution in DMSO) was diluted in FLIPR buffer+0.1% BSA. The EC50 and EC80 values of orexin-A were measured daily from standard agonist concentration-response curves in CHO(dHFr−)-OX1R and —OX2R cell lines. All compounds were dissolved in 100% DMSO. Inhibition curves were determined by addition of 11 concentrations (0.0001-10 μM) of inhibitory compounds and using EC80 value of orexin-A as agonist (a concentration which gave 80% of max agonist response, determined daily). The antagonists were applied 25 min (incubation at 37° C.) before the application of the agonist. Responses were measured as peak increase in fluorescence minus basal, normalized to the maximal stimulatory effect induced by EC80 value of orexin-A or orexin-B. Inhibition curves were fitted according to the Hill equation: y=100/(1+(x/IC50)^nH), where nH=slope factor using Excel-fit 4 software (Microsoft). Kb values were calculated according to the following equation Kb=IC50/(1+[A]/EC50) where A is the concentration of agonist added which is very close to agonist EC80 value, and IC50 and EC50 values were derived from the antagonist inhibition and orexin-A or B agonist curves, respectively.
Molecule CNC(=O)C(NC(CCc1ccc(C)nc1)c1ccc(F)c(C)c1)c1ccccc1 (mixture of isomers) [Example 258, 2-[1-(4-Fluoro-3-methyl-phenyl)-3-(6-methyl-pyridin-3-yl)-propylamino]-N-methyl-2-phenyl-acetamide] has a Kb of 0.0172 µM.
CNC(=O)C(NC(CCc1ccc(C(F)(F)F)nc1)c1ccc(OC(F)F)c(OC(F)F)c1)c1ccccc1 (mixture of isomers) [Example 263, 2-[1-(3,4-Bis-difluoromethoxy-phenyl)-3-(6-trifluoromethyl-pyridin-3-yl)-propylamino]-N-methyl-2-phenyl-acetamide] gave a Kb of 0.0102 µM.
CNC(=O)[C@@H](N[C@@H](CCc1ccc(C(F)(F)F)cc1)c1ccc(OC)c(OC)c1)c1ccc(Cl)cc1 (racemic) [Example 33, (S,R)-2-(4-Chloro-phenyl)-2-[(S,R)-1-(3,4-dimethoxy-phenyl)-3-(4-trifluoromethyl-phenyl)-propylamino]-N-methyl-acetamide] gave a Kb of 0.009 µM.
In the case of CNC(=O)[C@H](N[C@@H](CCc1ccc(C(F)(F)F)cc1)c1ccc(OC)c(OC)c1)c1ccc(F)cc1 (racemic) [Example 34, (S,R)-2-[(R,S)-1-(3,4-Dimethoxy-phenyl)-3-(4-trifluoromethyl-phenyl)-propylamino]-2-(4-fluoro-phenyl)-N-methyl-acetamide], the Kb is reported as 0.0049 µM.
CNC(=O)[C@H](N[C@@H](CCc1ccc(Cl)cc1)c1ccc2c(c1)CCO2)c1ccccc1 (racemic) [Example 38, (S,R)-2-[(R,S)-3-(4-Chloro-phenyl)-1-(2,3-dihydro-benzofuran-5-yl)-propylamino]-N-methyl-2-phenyl-acetamide] showed a Kb of 0.0096 µM.
CNC(=O)[C@H](N[C@@H](CCc1ccc(Cl)cc1)c1ccc(OC)c(OC)c1Cl)c1ccccc1 (racemic) [Example 40, (S,R)-2-[(R,S)-1-(2-Chloro-3,4-dimethoxy-phenyl)-3-(4-chloro-phenyl)-propylamino]-N-methyl-2-phenyl-acetamide] was tested, and the Kb was 0.0068 µM.
Molecule CNC(=O)[C@H](N[C@H](CCc1ccc(Cl)cc1)c1ccc(OC)c(OC)c1Cl)c1ccccc1 (racemic) [Example 41, (S,R)-2-[(S,R)-1-(2-Chloro-3,4-dimethoxy-phenyl)-3-(4-chloro-phenyl)-propylamino]-N-methyl-2-phenyl-acetamide] has a Kb of 0.0167 µM.
In the case of CNC(=O)[C@H](N[C@@H](CCc1ccc(C(F)(F)F)nc1)c1ccc2c(c1)CCCC2)c1ccc(F)cc1 (racemic) [Example 57, (S,R)-2-(4-Fluoro-phenyl)-N-methyl-2-[(R,S)-1-(5,6,7,8-tetrahydro-naphthalen-2-yl)-3-(6-trifluoromethyl-pyridin-3-yl)-propylamino]-acetamide], the Kb is reported as 0.0093 µM.
For CNC(=O)[C@H](N[C@@H](CCc1ccc(C(F)(F)F)cc1)c1ccc2c(c1)OCCN2C)c1ccccc1 (racemic) [Example 78, (S,R)—N-Methyl-2-[(R,S)-1-(4-methyl-3,4-dihydro-2H-benzo[1,4]oxazin-7-yl)-3-(4-trifluoromethyl-phenyl)-propylamino]-2-phenyl-acetamide], the Kb was 0.0127 µM.
CNC(=O)[C@H](N[C@@H](CCc1ccc(OC)cc1)c1cccnc1OC)c1ccccc1 (racemic) [Example 135, (S,R)-2-[(R,S)-3-(4-Methoxy-phenyl)-1-(2-methoxy-pyridin-3-yl)-propylamino]-N-methyl-2-phenyl-acetamide] was tested, and the Kb was 0.0155 µM.
Molecule CNC(=O)[C@@H](N[C@@H](CCc1ccc(C(F)(F)F)cc1)c1ccc(OC)c(OC)c1)c1ccccc1 (racemic) [Example 141, (S,R)-2-[(S,R)-1-(3,4-Dimethoxy-phenyl)-3-(4-trifluoromethyl-phenyl)-propylamino]-N-methyl-2-phenyl-acetamide] has a Kb of 0.0168 µM.
For CNC(=O)[C@H](N[C@@H](CCc1ccc(C(F)(F)F)cc1)c1ccc(OC)c(OC)c1)c1ccccc1 (racemic) [Example 142, (S,R)-2-[(R,S)-1-(3,4-Dimethoxy-phenyl)-3-(4-trifluoromethyl-phenyl)-propylamino]-N-methyl-2-phenyl-acetamide], the Kb was 0.003 µM.
CNC(=O)[C@H](N[C@@H](CCc1ccc(OC)cc1)c1ccc(OC)c(OC)c1)c1ccccc1 (racemic) [Example 146, (S,R)-2-[(R,S)-1-(3,4-Dimethoxy-phenyl)-3-(4-methoxy-phenyl)-propylamino]-N-methyl-2-phenyl-acetamide] showed a Kb of 0.0132 µM.
CNC(=O)[C@H](N[C@@H](CCc1ccc(C(F)(F)F)nc1)c1ccc(OC)c(OC)c1)c1ccccc1 (racemic) [Example 171, (S,R)-2-[(R,S)-1-(3,4-Dimethoxy-phenyl)-3-(6-trifluoromethyl-pyridin-3-yl)-propylamino]-N-methyl-2-phenyl-acetamide] gave a Kb of 0.005 µM.
Molecule CNC(=O)[C@H](N[C@H](CCc1ccc(C(F)(F)F)cc1)c1ccc(Cl)c(OC)c1)c1ccccc1 (racemic) [Example 176, (S,R)-2-[(S,R)-1-(4-Chloro-3-methoxy-phenyl)-3-(4-trifluoromethyl-phenyl)-propylamino]-N-methyl-2-phenyl-acetamide] has a Kb of 0.0086 µM.
CNC(=O)[C@H](N[C@@H](CCc1ccc(C(F)(F)F)cc1)c1ccc(Cl)c(OC)c1)c1ccccc1 (racemic) [Example 177, (S,R)-2-[(R,S)-1-(4-Chloro-3-methoxy-phenyl)-3-(4-trifluoromethyl-phenyl)-propylamino]-N-methyl-2-phenyl-acetamide] was tested, and the Kb was 0.0099 µM.
For CNC(=O)[C@H](N[C@@H](CCc1ccc(C(F)(F)F)cc1)c1cccnc1OC)c1ccccc1 (racemic) [Example 179, (S,R)-2-[(R,S)-1-(2-Methoxy-pyridin-3-yl)-3-(4-trifluoromethyl-phenyl)-propylamino]-N-methyl-2-phenyl-acetamide], the Kb was 0.0081 µM.
Work on CNC(=O)[C@H](N[C@@H](CCc1ccc(C(F)(F)F)cc1)c1cccc(C)n1)c1ccccc1 (racemic) [Example 207, (S,R)—N-Methyl-2-[(R,S)-1-(6-methyl-pyridin-2-yl)-3-(4-trifluoromethyl-phenyl)-propylamino]-2-phenyl-acetamide] yielded a Kb of 0.0079 µM.
In the case of CNC(=O)[C@H](N[C@@H](CCc1ccc(C)cc1)c1ccc(OC)c(OC)c1)c1ccccc1 (racemic) [Example 209, (S,R)-2-[(R,S)-1-(3,4-Dimethoxy-phenyl)-3-p-tolyl-propylamino]-N-methyl-2-phenyl-acetamide], the Kb is reported as 0.0024 µM.
CNC(=O)[C@H](N[C@@H](CCc1ccc(C(F)(F)F)cc1)c1cc(OC)ccn1)c1ccccc1 (racemic) [Example 210, (S,R)-2-[(R,S)-1-(4-Methoxy-pyridin-2-yl)-3-(4-trifluoromethyl-phenyl)-propylamino]-N-methyl-2-phenyl-acetamide] showed a Kb of 0.0096 µM.
In the case of CNC(=O)[C@H](N[C@H](CCc1ccc(C(F)(F)F)nc1)c1ccc(Cl)c(OC)c1)c1ccccc1 (racemic) [Example 215, (S,R)-2-[(S,R)-1-(4-Chloro-3-methoxy-phenyl)-3-(6-trifluoromethyl-pyridin-3-yl)-propylamino]-N-methyl-2-phenyl-acetamide], the Kb is reported as 0.008 µM.
CNC(=O)[C@H](N[C@@H](CCc1ccc(C(F)(F)F)nc1)c1ccc(Cl)c(OC)c1)c1ccccc1 (racemic) [Example 216, (S,R)-2-[(R,S)-1-(4-Chloro-3-methoxy-phenyl)-3-(6-trifluoromethyl-pyridin-3-yl)-propylamino]-N-methyl-2-phenyl-acetamide] was tested, and the Kb was 0.0073 µM.
